Laboratory results reported in US20050033056A1, “Hydroxylated indole derivatives and uses thereof” (priority 2001, published 2005).

Target: CYP2D6 (Homo sapiens, UniProt P10635)
Assay: Compound 1 metabolism / metabolite formation by recombinant CYP2D6
Assay type: in vitro ADME
Design: purchased Gentest Corp. (Woburn, Mass.); host or cells: insect cells (microsomal preparation)
Protocol: The metabolism of Compound 1 was determined by the disappearance of Compound 1 or the appearance of Compound 1 metabolites in reaction mixtures as compared to respective controls. Compound 1 was incubated in the reconstituted in vitro reaction systems containing pooled human liver S9 fractions, microsomal preparations, or recombinant hepatic CYP forms, including CYP1A2, CYP2C9, CYP2C19, CYP2D6, CYP2E1, and CYP3A4. The reaction mixture (total volume of 250 μL) contained 0.5 mg of liver microsomal protein, 50 or 25 pmol of recombinant CYP, and Compound 1 (50-80 μM) in 50 mM Tris buffer containing 15 mM MgCl2 (pH 7.4). After incubating at 37° C. with gentle shaking for 1 minute, the reaction was initiated by adding 25 μL of NADPH solution (20 mg/mL), and was carried out for 1 hour. The reaction was terminated by quickly cooling the test tube on ice, followed by the addition of an equal volume of 100% methanol. The samples were centrifuged in a desktop centrifuge at 14,000 rpm for 5 minutes, and the supernatants were filtered through syringe filters (13 mm, 0.45 μm). The filtrates were subjected to analysis using LC/MS (ion trap) or LC/MS/MS.
1. LC/MS (LCQ ion trap mass spectrometer, Finnigan Corp., San Jose, Calif.): Hewlett Packard 1100 HPLC system (Waldbronn, Germany) consisted of a binary pump, an autosampler, a column compartment unit, and an online variable wavelength UV detector (VWD). The detector was monitored at 270 nm, which is the UVmax of Compound 1 predetermined by scanning between 225-400 nm using a photodiode array detector (PDA). The metabolites were separated on a Hewlett Packard Eclipse C18 column (150×2.1 mm). The mobile phases were 10 nmM ammonium acetate at pH 4.8 (A) and acetonitrile (B). The gradient (B) was 10% (0-6 minutes), 22% (12-22 minutes), 90% (25-30 minutes), and 10% (31 minutes and after). The flow rate was 0.25 mL/minute. Software Navigator (Version 1.2, Finnigan Corp.) was used to control the HPLC and MS and to acquire the data. […]

Chain of CYP2D6 (P10635 whole entry): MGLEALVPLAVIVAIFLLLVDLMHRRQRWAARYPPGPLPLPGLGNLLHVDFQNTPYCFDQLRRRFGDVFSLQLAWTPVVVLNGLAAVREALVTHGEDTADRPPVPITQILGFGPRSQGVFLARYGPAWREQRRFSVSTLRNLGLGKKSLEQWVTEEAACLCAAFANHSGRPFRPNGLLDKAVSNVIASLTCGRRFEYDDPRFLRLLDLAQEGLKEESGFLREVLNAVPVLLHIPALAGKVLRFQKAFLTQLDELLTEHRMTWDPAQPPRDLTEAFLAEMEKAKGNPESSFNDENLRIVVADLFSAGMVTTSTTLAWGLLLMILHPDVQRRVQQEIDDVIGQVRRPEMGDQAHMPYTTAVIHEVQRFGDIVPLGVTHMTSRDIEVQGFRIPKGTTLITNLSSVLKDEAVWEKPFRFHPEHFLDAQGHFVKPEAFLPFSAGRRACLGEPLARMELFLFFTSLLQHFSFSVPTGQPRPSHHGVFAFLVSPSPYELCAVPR

`CNC(=O)Cc1ccc2ccn(C3CCN(CCc4ccccc4F)CC3)c2c1` [Compound 1, N-methyl-[1-[1-(2-fluorophenethyl)piperidine-4-yl]-1H-indol-6-yl] acetamide] was tested, and the “metabolism of Compound 1 by CYP2D6 (in words)” value (approximately 50 μM of Compound 1) was “metabolized” and the “Rel. Amount (%)” value (recombinant CYP2D6, estimated by UV absorbance at 270 nm, metabolite formed or Compound 1 left after 1 hour with NADPH) was 78%.
